Patent publication US4514573A, “Isoprenylamine derivatives” (priority 1981, dated 1985)

Experiments:
vaccinia virus = format: cell-based; conditions: 50 n molar concentration, Vero cells, in vitro
tumor cells KN7 -8 = test: Anti-tumor activity in mice inoculated with tumor cells; format: in vivo, Balb/c male mice; conditions: 30 mg/kg intraperitoneally, 24 hours before inoculation and on second and fifth day after; 6 mice per group
Excerpt: Groups, each consisting of 6 Balb/c male mice weighing about 20 g, were intraperitoneally administered 5×10^5 of tumor cells KN7 -8.

Compound | Anti-vaccinia virus activity Plaque inhibition rate % (vaccinia virus) [%] | Anti-tumor activity (Survivor on the 30th day) (tumor cells KN7 -8)
CC(C)=CCCC(C)=CCCC(C)=CCCC(C)=CCCC(C)=CCCC(C)=CCCC(C)=CCCC(C)=CCCC(C)=CCNCc1ccc(C)cc1C | 9.8 | –
CC(C)=CCCC(C)=CCCC(C)=CCCC(C)=CCCC(C)=CCCC(C)=CCCC(C)=CCCC(C)=CCCC(C)=CCCC(C)=CCNCc1cccc(CN)c1 [drawing 58] | – | 1/6
COc1ccc(CNCC=C(C)CCCC(C)CCCC(C)CCCC(C)C)cc1OC (stereo not drawn) [drawing 90] | 22.0 | –
